In patent publication US20230278972A1, “SUBSTITUTED HALOALKYL SULFONANILIDE HERBICIDES” (FMC Corporation, priority 2020, published 2023):

Experiments:
Type in all cases: in vivo
[1] = tested on: Foxtail, Giant (giant foxtail, Setaria faberi); assay: Test A1 preemergence, Foxtail, Giant
Summary of the method: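 Plants grown in pots of loam/sand mix; preemergence = soil-directed spray on seeded pots, postemergence = spray at 1–2 leaves, height 2–10 cm; test chemicals formulated in non-phytotoxic solvent with surfactant.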

[2] = tested on: corn (Zea mays); assay: Test A1 preemergence, corn
Summary of the method: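 Plants were grown in a loam soil/sand blend, with test chemicals formulated in a non-phytotoxic solvent mixture containing surfactant. Preemergence treatment (corn) was a directed soil spray at planting. Postemergence treatment was applied to plants 2 to 10 cm tall at the one- to two-leaf stage.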

[3] = tested on: soybean (Glycine max); assay: Test A1 postemergence, soybean; conditions: for Soybean plant response rating: postemergence; for Plant response rating, Soybean: Postemergence
Summary of the method: (§1)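 Test compounds were formulated in a non-phytotoxic solvent mixture containing a surfactant. For preemergence, seeds sown in a loam soil–sand blend received a directed soil spray. For postemergence, potted plants in the same soil, 2 to 10 cm tall at the one- to two-leaf stage, were sprayed.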

[4] = tested on: rice (Oryza sativa); assay: Test B1 flooded paddy test, rice; conditions: 250 g ai/ha, Flood, applied to paddy water, 2-leaf stage, visually evaluated after 10 to 14 days
From the text: A dash (-) response means no test result.

[5] = tested on: kochia (Bassia scoparia); assay: Test A1 postemergence, kochia; conditions: for Kochia plant response rating: postemergence; for Plant response rating, Kochia: Postemergence
Summary of the method: as §1

[6] = 31 g ai/ha, 0 to 100 scale (0 no effect, 100 complete control)
[7] = 125 g ai/ha, 0 to 100 scale, 0 no effect, 100 complete control
[8] = 31 g ai/ha, 0 to 100 scale (0 no effect, 100 complete control), 10 days
[9] = 125 g ai/ha, 0 to 100 scale (0 no effect, 100 complete control), 10 days
[10] = 500 g ai/ha, 0 to 100 scale (0 no effect, 100 complete control)

Row | SMILES | Plant response rating, Foxtail, Giant [1, 6] | Plant response rating, Foxtail, Giant [1, 7] | Plant response rating, Corn [2, 6] | Plant response rating, Corn [2, 7] | Soybean plant response rating [3, 6] | Plant response rating, Soybean ([3]; 125 g ai/ha, 0 to 100 scale) | Plant response rating, Rice (0 to 100 scale, 0 is no effect, 100 is complete control) [4] | Kochia plant response rating [5, 6] | Plant response rating, Kochia ([5]; 125 g ai/ha, 0 to 100 scale) | Plant response rating, Soybean [3, 8] | Plant response rating, Kochia [5, 8] | Plant response rating, Soybean [3, 9] | Plant response rating, Kochia [5, 9] | Plant response rating, Foxtail, Giant [1, 10] | Plant response rating, Corn [2, 10] | Plant response rating, Soybean ([3]; 500 g ai/ha, 0 to 100 scale) | Plant response rating, Kochia ([5]; 500 g ai/ha, 0 to 100 scale)
1 | Cc1c(C(=O)N2C[C@@H](C)O[C@H](C)C2)cc(N(COC(=O)C(C)(C)C)S(=O)(=O)C(F)(F)F)c(C)c1C (relative stereo) [Compound 373] | 0 | 90 | 0 | 20 | 50 | 70 | 20 | 0 | 10 |  |  |  |  |  |  |  | 
2 | CCOC(=O)N(c1cc(C(=O)N2C[C@@H](C)O[C@H](C)C2)c(C)c(C)c1C)S(=O)(=O)C(F)(F)F (relative stereo) [Compound 374] | 50 | 100 | 20 | 40 | 50 | 90 | 0 | 0 | 10 |  |  |  |  |  |  |  | 
3 | Cc1c(C(=O)N2CCSCC2)cc(N(COC(=O)C(C)(C)C)S(=O)(=O)C(F)(F)F)c(C)c1C [Compound 285] | 40 | 90 | 0 | 10 |  | 60 | 0 |  | 90 | 30 | 10 |  |  |  |  |  | 
4 | CCOC(=O)N(c1cc(C(=O)N2CCSCC2)c(C)c(C)c1C)S(=O)(=O)C(F)(F)F [Compound 286] | 80 | 100 | 0 | 0 |  | 60 | 0 |  | 50 | 50 | 20 |  |  |  |  |  | 
5 | C#CCN(C)C(=O)c1cc(NS(=O)(=O)C(F)(F)F)c(C)c(C)c1C [Compound 368] | 90 | 100 | 0 | 90 | 70 | 90 | 0 | 60 | 80 |  |  |  |  |  |  |  | 
6 | Cc1c(C(=O)N2CCC(C)CC2)cc(N(COC(=O)C(C)(C)C)S(=O)(=O)C(F)(F)F)c(C)c1C [Compound 369] | 0 | 20 | 0 | 0 | 20 | 90 | 20 | 0 | 50 |  |  |  |  |  |  |  | 
7 | C#CCN(C)C(=O)c1cc(N(COC(=O)C(C)(C)C)S(=O)(=O)C(F)(F)F)c(C)c(C)c1C [Compound 371] | 10 | 100 | 0 | 90 | 60 | 90 | 10 | 40 | 70 |  |  |  |  |  |  |  | 
8 | Cc1cc(C)c(C2=NOC3OCCCC23)cc1NS(=O)(=O)C(F)(F)F (stereo not drawn) [Compound 372] | 90 | 100 | 0 | 10 | 30 | 60 | 10 | 0 | 0 |  |  |  |  |  |  |  | 
9 | Cc1ccc(C2=NOC3CCCC23)cc1NS(=O)(=O)C(F)(F)F (stereo not drawn) [Compound 377] | 0 | 0 | 0 | 0 | 0 | 30 | 0 | 20 | 30 |  |  |  |  |  |  |  | 
10 | CCc1cc(C)c(N(COC(=O)C(C)(C)C)S(=O)(=O)C(F)(F)F)cc1C1=NOC2CCCC12 (stereo not drawn) [Compound 378] | 0 | 20 | 0 | 0 | 0 | 20 | 10 | 0 | 60 |  |  |  |  |  |  |  | 
11 | Cc1cc(C)c(C2=NOC(C(C)C)C2)cc1NS(=O)(=O)C(F)(F)F (stereo not drawn) [Compound 381] | 20 | 100 | 0 | 70 | 50 |  | 0 | 0 |  |  |  | 60 | 20 |  |  |  | 
12 | Cc1c(C2=NOC3(CCCC3)C2)cc(N(COC(=O)C(C)(C)C)S(=O)(=O)C(F)(F)F)c(C)c1C [Compound 382] | 0 | 30 | 0 | 0 | 40 |  | 10 | 0 |  |  |  | 50 | 30 |  |  |  | 
13 | Cc1cc(C)c(N(COC(=O)C(C)(C)C)S(=O)(=O)C(F)(F)F)cc1C1=NOC(C(C)C)C1 (stereo not drawn) [Compound 383] | 0 | 20 | 0 | 0 | 30 |  | 10 | 20 |  |  |  | 50 | 20 |  |  |  | 
14 | Cc1cc(C)c(N2CC3(CCCCC3)CC2=O)cc1NS(=O)(=O)C(F)(F)F [Compound 392] | 0 | 100 | 10 | 10 | 50 |  | 0 | 10 |  |  |  | 60 | 20 |  |  |  | 
15 | Cc1cc(Cl)c(NS(=O)(=O)C(F)(F)F)cc1N1CCC2(CCCCC2)C1=O [Compound 393] | 70 | 100 | 0 | 80 | 50 |  | 0 | 20 |  |  |  | 60 | 60 |  |  |  | 
16 | Cc1cc(Cl)c(NS(=O)(=O)C(F)(F)F)cc1N1CC2(CCCCC2)OC1=O [Compound 394] | 90 | 100 | 0 | 20 | 10 |  | 0 | 40 |  |  |  | 60 | 80 |  |  |  | 
17 | Cc1cc(C)c(N(COC(=O)C(C)(C)C)S(=O)(=O)C(F)(F)F)cc1N1CCC2(CCC(F)(F)CC2)C1=O [Compound 397] |  | 100 |  | 10 |  |  | 0 |  |  |  |  | 50 | 90 | 100 | 60 | 60 | 90
